Results taken from paper PMC9592910, “Tissue distribution and integrated pharmacokinetic properties of major effective constituents of oral Gegen-Qinlian decoction in mice” (Frontiers in Pharmacology, 2022).
Marks after values point to notes of the source that are not given here.

What was measured:
[1] = Pharmacokinetics of GQD constituents in the portal vein of mice after oral GQD; assay type: in vivo, Kunming mice; conditions: portal vein plasma, portal vein plasma, mice; for Cmax / MRT / AUC(0-t) / half-life: oral GQD extract 6.1 g/kg; for AUC(0-t): read-out: AUC0–24 h; for half-life: read-out: T1/2 (converted)
Procedure: (§1) Fifty-four Kunming mice were randomly divided into nine groups according to body weight and gender (3 male and three female in each group). Each group was orally administered with water solution (0.2 ml/10 g body weight) of the GQD extract powder at the dosage of 6.1 g/kg body weight. The dosage of GQD extract powder equals to 18 g/kg herbal pieces of GQD, which is equivalent to its clinical dosage. At each designed time point (0.08, 0.25, 0.5, 1, 2, 4, 8, 12, and 24 h) after oral administration, six mice were anesthetized with ether, and blood was collected from the portal vein (about 0.2 ml, aspirated in a 1 ml heparinized syringe) and then the systemic circulation (about 0.2 ml, collected in heparinized tubes after removal of the eyeball) of the mice to prepare plasma samples, and the livers and the colons were removed to prepare respective homogenate. After pretreatment, the concentrations of 19 major constituents of GQD in each sample were measured by the validated LC-MS/MS method (see “2.3”). Then the C-T curves of the constituents in the plasma and the tissue homogenates were respectively drawn and their pharmacokinetic parameters were respectively calculated.
(§2) It should be noted that the pharmacokinetic parameters of a GQD constituent was calculated based on its average concentration in six mice at each time point. The results were expressed as mean ± SD.

[2] = design: method as in Zhai et al., 2020; conditions: at 10 μM; ref Zhai et al., 2020; cited from earlier work
[3] = tested on: dextran sodium sulfate-induced ulcerative colitis model mice; design: method as in Dong et al., 2022; conditions: oral 40 mg/kg for 7 days, DSS-induced ulcerative colitis model mice; ref Dong et al., 2022; cited from earlier work
[4] = Pharmacokinetics/tissue distribution of GQD constituents in the livers of mice after oral GQD; assay type: in vivo, Kunming mice; conditions: liver, mice; for half-life: po, read-out: T1/2 (converted)
Procedure: (§3) The liver and the colon homogenates were prepared with 10 times (V: W) the volume of ascorbic acid solution (200 μg/ml). Then the homogenates were pretreated as plasma to obtain the tissue samples for LC-MS/MS analysis. Fifty-four Kunming mice were randomly divided into nine groups according to body weight and gender (3 male and three female in each group). […] Then the C-T curves of the constituents in the plasma and the tissue homogenates were respectively drawn and their pharmacokinetic parameters were respectively calculated. […] It should be noted that the pharmacokinetic parameters of a GQD constituent was calculated based on its average concentration in six mice at each time point. The results were expressed as mean ± SD.

[5] = Pharmacokinetics/tissue distribution of GQD constituents in the colons of mice after oral GQD; assay type: in vivo, Kunming mice; conditions: colon, mice; for half-life: po, read-out: T1/2 (converted)
Procedure: as §3

[6] = Pharmacokinetics of GQD constituents in the systemic circulation of mice after oral GQD; assay type: in vivo, Kunming mice; conditions: systemic circulation plasma, systemic circulation plasma, mice; for half-life / Tmax / T1/2: oral GQD […]; for half-life: read-out: T1/2 (converted); for Cmax / MRT / AUC(0-t): oral GQD 6.1 g/kg; for AUC(0-t): read-out: AUC0–24 h
Procedure: as §1, §2

[7] = tested on: rats with irritable bowel syndrome; design: method as in Wang et al., 2021; conditions: oral 6–24 mg/kg, ref Wang et al., 2021; cited from earlier work
[8] = tested on: dextran sodium sulfate-induced colitis; design: method as in Jeon et al., 2020; conditions: oral 10 or 50 mg/kg; ref Jeon et al., 2020; cited from earlier work
[9] = both, Kunming, mouse, po, […], oral GQD extract […], read-out: Tmax
[10] = both, Kunming, mouse, liver (homogenate), oral GQD extract […]
[11] = both, Kunming, mouse, liver (homogenate), oral GQD extract 6.1 g/kg
[12] = both, Kunming, mouse, liver (homogenate), oral GQD extract 6.1 g/kg, read-out: Tmax
[13] = both, Kunming, mouse, colon (homogenate), oral GQD extract […]
[14] = both, Kunming, mouse, colon (homogenate), oral GQD extract 6.1 g/kg
[15] = both, Kunming, mouse, colon (homogenate), oral GQD extract 6.1 g/kg, read-out: Tmax
[16] = both, Kunming, mouse, po, […], read-out: Tmax

Structure (SMILES)	Tmax [1, 9] [h]	Cmax ([1]; both, Kunming, mouse) [ng/mL]	MRT ([1]; both, Kunming, mouse) [h]	AUC(0-t) ([1]; both, Kunming, mouse) [ng·h/mL]	half-life ([1]; both, Kunming, mouse) [h]	half-life [4, 10] [h]	Cmax [4, 11] [ng/g]	MRT [4, 11] [h]	Tmax [4, 12] [h]	half-life [5, 13] [h]	Cmax [5, 14] [ng/g]	MRT [5, 14] [h]	Tmax [5, 15] [h]	half-life ([6]; both, Kunming, mouse, po, […]) [h]	Tmax [6, 16] [h]	Cmax ([6]; both, Kunming, mouse) [ng/mL]	MRT ([6]; both, Kunming, mouse) [h]	AUC(0-t) ([6]; both, Kunming, mouse) [ng·h/mL]	T1/2 ([4]; oral GQD extract […])	T1/2 ([5]; oral GQD extract […]) [h]	other results
COc1cc2c(cc1OC)-c1cc3ccc(OC)c(OC)c3c[n+]1CC2 [Palmatine, palmatine]	–	–	–	–	–	–	–	–	–	–	–	–	–	–	–	–	–	–	4.6 h	3.8	T1/2 ([1]; oral GQD extract […]): 3.0 h; Tmax ([1]; oral GQD extract […]): 4.0 h; Tmax ([4]; oral GQD extract […]): 2.0 h; Tmax ([5]; oral GQD extract […]): 4.0 h; T1/2 [6]: 7.2 h; Tmax [6]: 1.0 h
O=c1c(-c2ccc(O)cc2)coc2c([C@@H]3O[C@H](CO)[C@@H](O)[C@H](O)[C@H]3O)c(O)ccc12 [Puerarin, puerarin]	0.25 to 0.5	1990	3.2	6710	2.9	3 to 4	2870	3.8	0.5	1 to 4	61600	5.9	4	3.4	0.25 to 0.5	1580	3.3	5230	4.0 h	1.3	effect on irritable bowel syndrome symptoms [7]: improved symptoms of rats with irritable bowel syndrome; effect on dextran sodium sulfate-induced colitis [8]: alleviated dextran sodium sulfate-induced colitis

Second part, led by results:

Tmax [1, 9] [h]	Cmax ([1]; both, Kunming, mouse) [ng/mL]	MRT ([1]; both, Kunming, mouse) [h]	AUC(0-t) ([1]; both, Kunming, mouse) [ng·h/mL]	half-life ([1]; both, Kunming, mouse) [h]	half-life [4, 10] [h]	Cmax [4, 11] [ng/g]	MRT [4, 11] [h]	Tmax [4, 12] [h]	half-life [5, 13] [h]	Cmax [5, 14] [ng/g]	MRT [5, 14] [h]	Tmax [5, 15] [h]	half-life ([6]; both, Kunming, mouse, po, […]) [h]	Tmax [6, 16] [h]	Cmax ([6]; both, Kunming, mouse) [ng/mL]	MRT ([6]; both, Kunming, mouse) [h]	AUC(0-t) ([6]; both, Kunming, mouse) [ng·h/mL]	Structure (SMILES)	T1/2 ([4]; oral GQD extract […])	T1/2 ([5]; oral GQD extract […]) [h]	other results
4	191	5.5	1420	8	~10	427	8.3	4	3.5	6230	6	4	~6	1	85.4	5.4	419	COc1ccc2cc3[n+](cc2c1OC)CCc1cc2c(cc1-3)OCO2 [Berberine, berberine]	10.1# h	–	anti-inflammatory effect [2]: significant anti-inflammatory effect; effect on intestinal mucosal barrier function and inflammatory reaction [3]: significantly improved intestinal mucosal barrier function; T1/2 [6]: 5.3 h
0.25	38.3	2.6	161	1.2	5.3	53.4	5.3	0.25	2.1	2150	5	4	1.9	0.5	22.4	2.6	94.9	COc1ccc2c(c1O)-c1c(O)c(OC)cc3c1[C@H](C2)[N+](C)(C)CC3 [Magnoflorine, magnoflorine]	–	–	–
2	1220	3.3	4510	1	2 to 3	839	5	4	2 to 3	535	6.1	4	1.5	2	64.7	3.6	300	COc1c(O)cc(O)c2c(=O)cc(-c3ccccc3)oc12 [Wogonin, wogonin]	2.6 h	3.2	–
